Patent US6696533B1, “Stable N-oxly radical assisted emulsion polymerization under pressure” (BASF Aktiengesellschaft, priority 1997, dated 2004)

Source text: The monomers and polymerization auxiliaries used in the examples below were used without further purification, in other words as acquired.

molal solubility in water: 6.4e-05 mol/kg
SMILES: CC1(C)CCCC(C)(C)N1O [TEMPO, 2,2,6,6-tetramethyl-1-oxyl-piperidine]
